US20140348966A1, “GARCINIA BUCHANANII BAKER COMPOUNDS, COMPOSITIONS AND RELATED METHODS” (priority 2011, published 2014)
Several values for one entry are separate records, joined by “and”; a condition that tells them apart may be missing. Equal values may be shown once. Where a name gives a salt, the structure may show the parent alone.

Test system: guinea pig distal colon
Test: fecal pellet propulsion motility assay in isolated distal colon (GIMM)
Method: Gastrointestinal Motility Assays: Segments (˜10 cm long) of distal colon were pinned on either end in a Sylgard-lined 50 mL organ bath, continuously perfused with oxygenated Krebs solution (rate: 10 mL min^−1) and maintained at temperatures between 36 and 37° C. Tissues were initially allowed to equilibrate for 30 mins in re-circulating Krebs solution. Colonic motility was studied using the Gastronintestinal Motility Monitoring system (GIMM; Med-Associates Inc., Saint Albans, Vt., USA), which included a digital video camera (Catamount Research and Development Inc, St Albans, Vt., USA) to film fecal pellet propulsion. Trials were separated by 5-min recovery periods between successive pellet runs. The GIMM system software calculated velocities by tracking pellets as they traversed colon segments. After initial equilibration, five pellet propulsion trials in vehicle solution were obtained to determine the basal velocity for each tissue preparation. To reduce variations between runs and experiments, the values obtained were used to generate a normalized basal velocity by dividing the values of the 4th-5th runs by the value of the 1st-2nd runs. Garcinia buchananii stem bark extract and test compounds dissolved in 100 mL of Krebs solution were superfused either into the organ bath or into the lumen of the colon using polyethylene tubing [PE 205; outside diameter 9.5 mm (BD-Worldwide, Sparks, Md., USA)]. The effects of extract and test compounds were evaluated by obtaining velocities of four trials taken at 5-min intervals (5-20 min) Normalized velocity data for these treatments were obtained by dividing the test velocities acquired by the average velocity of the five pellet propulsion runs performed in vehicle solution (runs 1-5, above). Normalized data became ratios without units, and were presented as a percent velocity of basal activity for each tissue. Velocities of pellet propulsion were also studied during washout of tissue with Krebs solution (after extract or test compound application) for 20 min
A segment (˜10-12 cm long) of distal colon was pinned on either end in a Sylgard-lined 50 mL organ bath being continuously perfused with oxygenated Krebs solution (rate: 10 mL min^−1) and maintained at temperatures between 36-37° C. Nail-polish-coated guinea-pig pellets similar in shape and size to the “native” colonic fecal pellets were used to determine propulsive velocities using the Gastrointestinal Motility Monitoring system (Med-Associates Inc., Saint Albans, Vt., USA) for filming pellet propulsion as described by Hoffman and others (2010). Velocity was calculated based on the time required for pellets to traverse 5-6 cm of the central colon segment ending 1 cm from the aboral end. Data collection started after 30 minutes of equilibration. A five-minute interval was used to allow equilibration of motor activity between successive pellet runs. Baseline velocities were measured for 20 minutes.
In intraluminal studies, the aqueous extract was prepared by suspending 2 g of G. buchananii bark powder in 100 mL Krebs, whereas 1 g G. buchananii bark powder prepared in the same manner was used for bath (serosal) applications. The extract-Krebs mixture was continuously stirred for 30 minutes and filtered using analytical filter paper (Schleicher and Schuell Blue Ribbon filter paper 589/3; 0.2 μm retention). Garcinia buchananii extract and test compounds were delivered to isolated colons in Krebs solution, and evaluated for effects on pellet propulsion during 20-25 minute time intervals. Intraluminal drug deliveries (350 μL min^−1 Krebs solution) were performed using polyethylene tubing (PE 205; outside diameter 9.5 mm) inserted ˜1.5 cm into the oral end of the segments. In bath deliveries, G. buchananii extract and test compounds were superfused directly into the organ bath. Studies involving PTLC fractions were performed using the organ bath delivery method only.

[1] = bath (serosal) application, 20 min, extract 1 g/100 mL Krebs, PTLC1 15 mg, PTLC5 3.8 mg/100 mL, RS-56812 50 nmol/L, cisapride 100 nmol/L, CJ-033466 300 nmol/L, granisetron 1 μmol/L, ondansetron 0.5 μmol/L, GR-113808 5 μmol/L
[2] = intraluminal delivery, 5 min, extract 2 g bark powder/100 mL Krebs, 5-HT 0.5 μmol/L, RS-56812 50 nmol/L, cisapride 100 nmol/L, CJ-033466 300 nmol/L, GR-113808 5 μM
[3] = intraluminal delivery, 15 min, extract 2 g bark powder/100 mL Krebs, drug concentrations as at 5 min
[4] = intraluminal delivery, 20 min, extract 2 g bark powder/100 mL Krebs, drug concentrations as at 5 min

| SMILES | pellet propulsion, percent of normalized baseline pellet velocity [1] | pellet propulsion, percent of normalized baseline pellet velocity [2] | pellet propulsion, percent of normalized baseline pellet velocity [3] | pellet propulsion, percent of normalized baseline pellet velocity [4] | inhibition of pellet propulsion (intraluminal, after 20 minutes, extract 2 g/100 mL Krebs, granisetron 2 μM, GR-113808 5 μM) | inhibition of pellet propulsion (serosal (bath) application, 20 min, extract 1 g, PTLC1 15 mg, PTLC5 3.8 mg per 100 mL Krebs, cisapride 100 nmol/L, RS-56812 50 nmol/L) |
| --- | --- | --- | --- | --- | --- | --- |
| Cc1cn2c(N)c(Cl)cc(C(=O)NCC3CCN(CC(C)C)CC3)c2n1 [CJ-033466] | 102.8±6.5% | 132.7 ± 7.1% | 112.1 ± 6.7% | 116.6 ± 5.6% | – | – |
| NCCc1c[nH]c2ccc(O)cc12 [Compound 5-HT, Serotonin hydrochloride] | – | 118.3 ± 16.2% | 117.6 ± 13.5% | 114.3 ± 11.9% | – | – |
| Cn1cc(C(=O)OCC2CCN(CCNS(C)(=O)=O)CC2)c2ccccc21 [GR-113808] | did not alter pellet propulsion | 109.3 ± 6.1% | 93.2 ± 3.6% | 91.7 ± 3.1% | 10% | – |
| Cn1cc(C(=O)C(=O)NC2CN3CCC2CC3)c2ccccc21 (centres unmarked) [RS-56812] | 103.3±4.7% | 119.7 ± 5.2% | 119.6 ± 5.4% | 126.7 ± 9.2% | – | – |
| COc1cc(N)c(Cl)cc1C(=O)NC1CCN(CCCOc2ccc(F)cc2)CC1OC (centres unmarked) [cisapride, Cisapride] | 85.0±5.5% and 85.0±5.9% | 115.6 ± 4.9% | 109.6 ± 9.3% | 122.0 ± 8.2% | – | 15% |
| CN1C2CCCC1CC(NC(=O)c1nn(C)c3ccccc13)C2.Cl (centres unmarked) [granisetron, granisetron hydrochloride] | 101.4±7.0% | 99.3 ± 4.2% | 92.4 ± 1.4% | 86.5 ± 3.6% | – | – |
| Cc1nccn1CC1CCc2c(c3ccccc3n2C)C1=O (centres unmarked) [ondansetron, ondansetron hydrochloride] | 111.3±9.8% | – | – | – | – | – |
